This passage reports % of control, % of inhibition and % of activity results from ChEMBL document CHEMBL5465560, “Selectivity Literature for EUbOPEN Chemogenomic Library” (2024).

One test concerns the target SRSF protein kinase 1 (Homo sapiens, UniProt Q96SB4). Briefly: Selectivity interaction (KinomeScan (DiscoverX)) EUB0000607a SRPK1. The note with it: at 10 µM.
The target of test [1] is T1, Ankyrin repeat and protein kinase domain-containing protein 1 (Homo sapiens) (UniProt Q8NFD2).
T1 sequence (whole entry): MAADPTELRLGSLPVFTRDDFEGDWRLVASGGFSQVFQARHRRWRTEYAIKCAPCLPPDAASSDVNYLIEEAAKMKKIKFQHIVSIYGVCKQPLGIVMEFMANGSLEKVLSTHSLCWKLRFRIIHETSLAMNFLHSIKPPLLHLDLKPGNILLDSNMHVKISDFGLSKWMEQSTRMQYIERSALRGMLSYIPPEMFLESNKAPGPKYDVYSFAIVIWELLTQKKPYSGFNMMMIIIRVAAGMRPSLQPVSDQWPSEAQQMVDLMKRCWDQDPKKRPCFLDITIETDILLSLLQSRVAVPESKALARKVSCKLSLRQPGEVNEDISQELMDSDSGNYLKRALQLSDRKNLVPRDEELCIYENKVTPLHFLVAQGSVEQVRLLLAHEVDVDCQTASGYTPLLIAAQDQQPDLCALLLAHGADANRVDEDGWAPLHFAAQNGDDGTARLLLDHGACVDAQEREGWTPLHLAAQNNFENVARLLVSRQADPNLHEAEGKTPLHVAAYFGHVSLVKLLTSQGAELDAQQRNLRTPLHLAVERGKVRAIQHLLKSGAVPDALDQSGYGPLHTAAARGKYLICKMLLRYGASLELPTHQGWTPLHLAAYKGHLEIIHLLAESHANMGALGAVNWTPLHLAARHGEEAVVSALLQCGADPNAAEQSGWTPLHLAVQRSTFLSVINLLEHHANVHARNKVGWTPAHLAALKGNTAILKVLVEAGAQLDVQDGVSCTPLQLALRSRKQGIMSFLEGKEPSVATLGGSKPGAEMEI
Briefly: Selectivity interaction (KinomeScan (DiscoverX)) EUB0000666a ANKK1. The note with it: at 10 µM.

Test [2] deals with Receptor tyrosine-protein kinase erbB-2 (Homo sapiens, UniProt P04626). Briefly: Selectivity interaction (KinomeScan (DiscoverX)) EUB0000655a ERBB2. The note with it: at 10 µM.
Sequence of Receptor tyrosine-protein kinase erbB-2 (P04626 whole entry): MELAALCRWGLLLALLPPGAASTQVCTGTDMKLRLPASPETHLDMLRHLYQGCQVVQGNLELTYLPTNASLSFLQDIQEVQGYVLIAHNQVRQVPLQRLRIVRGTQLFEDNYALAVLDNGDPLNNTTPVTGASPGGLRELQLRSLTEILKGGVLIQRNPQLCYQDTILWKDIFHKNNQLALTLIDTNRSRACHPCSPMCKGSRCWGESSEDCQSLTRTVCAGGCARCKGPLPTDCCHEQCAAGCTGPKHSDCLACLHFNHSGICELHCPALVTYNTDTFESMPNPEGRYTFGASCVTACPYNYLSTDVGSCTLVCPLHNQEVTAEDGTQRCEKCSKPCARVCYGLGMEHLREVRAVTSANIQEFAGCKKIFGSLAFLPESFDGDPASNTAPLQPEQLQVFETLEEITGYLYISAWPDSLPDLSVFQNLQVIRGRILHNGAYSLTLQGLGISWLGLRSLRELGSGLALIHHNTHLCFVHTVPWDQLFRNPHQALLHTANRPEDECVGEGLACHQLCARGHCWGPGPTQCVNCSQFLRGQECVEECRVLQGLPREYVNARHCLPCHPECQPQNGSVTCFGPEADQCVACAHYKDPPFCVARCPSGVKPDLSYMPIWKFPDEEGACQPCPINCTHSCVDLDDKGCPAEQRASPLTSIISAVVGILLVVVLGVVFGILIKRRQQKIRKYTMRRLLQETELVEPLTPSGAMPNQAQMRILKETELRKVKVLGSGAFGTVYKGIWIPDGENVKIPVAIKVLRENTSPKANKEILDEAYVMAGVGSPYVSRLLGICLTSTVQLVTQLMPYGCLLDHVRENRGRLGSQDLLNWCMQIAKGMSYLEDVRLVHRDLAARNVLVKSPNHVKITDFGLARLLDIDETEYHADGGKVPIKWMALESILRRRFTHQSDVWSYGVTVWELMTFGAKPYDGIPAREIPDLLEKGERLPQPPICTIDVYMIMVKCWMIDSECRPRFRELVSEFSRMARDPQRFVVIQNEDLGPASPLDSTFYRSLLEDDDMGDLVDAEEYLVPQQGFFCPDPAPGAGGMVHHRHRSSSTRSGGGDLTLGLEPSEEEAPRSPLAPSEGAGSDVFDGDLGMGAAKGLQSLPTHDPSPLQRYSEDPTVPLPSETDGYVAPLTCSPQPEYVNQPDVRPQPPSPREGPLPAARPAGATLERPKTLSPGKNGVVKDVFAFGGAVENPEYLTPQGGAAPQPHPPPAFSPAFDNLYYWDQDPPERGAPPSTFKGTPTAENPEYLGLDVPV
Test [3] addresses Serine/threonine-protein kinase/endoribonuclease IRE1 (Homo sapiens) (UniProt O75460). Briefly: Selectivity interaction (KinomeScan (DiscoverX)) EUB0001079a ERN1. The settings on record: at 1 µM.
For test [4], the target named is T2, Rhodopsin kinase GRK7 (Homo sapiens) (UniProt Q8WTQ7).
T2 sequence (whole entry): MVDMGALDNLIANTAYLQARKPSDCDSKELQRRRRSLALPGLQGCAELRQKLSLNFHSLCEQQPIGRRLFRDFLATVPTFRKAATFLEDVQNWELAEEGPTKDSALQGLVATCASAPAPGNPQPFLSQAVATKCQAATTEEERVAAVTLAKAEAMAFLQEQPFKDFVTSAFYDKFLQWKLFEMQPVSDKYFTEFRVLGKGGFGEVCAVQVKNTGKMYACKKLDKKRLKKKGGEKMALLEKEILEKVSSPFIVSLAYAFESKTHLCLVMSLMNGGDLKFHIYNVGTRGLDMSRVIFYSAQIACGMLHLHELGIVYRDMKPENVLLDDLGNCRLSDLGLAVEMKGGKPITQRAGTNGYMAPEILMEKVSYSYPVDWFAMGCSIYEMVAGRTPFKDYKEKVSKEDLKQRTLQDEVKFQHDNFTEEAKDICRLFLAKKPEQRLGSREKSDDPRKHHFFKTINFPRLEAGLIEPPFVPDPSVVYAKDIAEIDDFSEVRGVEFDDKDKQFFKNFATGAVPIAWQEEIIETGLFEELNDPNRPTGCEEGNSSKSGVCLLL
Briefly: Selectivity interaction (KinomeScan (DiscoverX)) EUB0001079a GRK7. The note with it: at 1 µM.

Test [5] concerns the target Ribosomal protein S6 kinase beta-1 (Homo sapiens, UniProt P23443). Briefly: Selectivity interaction (ActivX KiNativ screen (kinase selectivity in THP-1 cell lysates)) EUB0000639a RPS6KB1. It counts as subcellular. The note with it: lysate, at 5 µM.
For test [6], the target named is Serine/threonine-protein kinase 25 (Homo sapiens) (UniProt O00506). Briefly: Selectivity interaction (Kinase panel (Invitrogen)) EUB0000639a STK25. The note with it: at 200 nM.
Sequence of Serine/threonine-protein kinase 25 (Homo sapiens) (O00506 whole entry, looked up): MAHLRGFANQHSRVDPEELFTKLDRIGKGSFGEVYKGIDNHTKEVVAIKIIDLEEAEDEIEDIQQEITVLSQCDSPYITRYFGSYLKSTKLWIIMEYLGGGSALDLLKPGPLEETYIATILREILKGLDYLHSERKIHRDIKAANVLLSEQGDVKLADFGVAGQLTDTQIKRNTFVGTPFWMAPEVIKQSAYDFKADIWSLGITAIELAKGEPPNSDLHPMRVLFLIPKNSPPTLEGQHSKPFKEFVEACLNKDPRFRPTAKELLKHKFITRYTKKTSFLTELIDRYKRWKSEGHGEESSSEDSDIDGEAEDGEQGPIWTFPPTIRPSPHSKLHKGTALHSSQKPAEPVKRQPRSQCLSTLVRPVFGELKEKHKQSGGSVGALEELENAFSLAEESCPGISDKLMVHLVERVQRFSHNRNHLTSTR
Test [7] addresses T3, Muscle, skeletal receptor tyrosine-protein kinase (Homo sapiens) (UniProt O15146).
T3 sequence (whole entry): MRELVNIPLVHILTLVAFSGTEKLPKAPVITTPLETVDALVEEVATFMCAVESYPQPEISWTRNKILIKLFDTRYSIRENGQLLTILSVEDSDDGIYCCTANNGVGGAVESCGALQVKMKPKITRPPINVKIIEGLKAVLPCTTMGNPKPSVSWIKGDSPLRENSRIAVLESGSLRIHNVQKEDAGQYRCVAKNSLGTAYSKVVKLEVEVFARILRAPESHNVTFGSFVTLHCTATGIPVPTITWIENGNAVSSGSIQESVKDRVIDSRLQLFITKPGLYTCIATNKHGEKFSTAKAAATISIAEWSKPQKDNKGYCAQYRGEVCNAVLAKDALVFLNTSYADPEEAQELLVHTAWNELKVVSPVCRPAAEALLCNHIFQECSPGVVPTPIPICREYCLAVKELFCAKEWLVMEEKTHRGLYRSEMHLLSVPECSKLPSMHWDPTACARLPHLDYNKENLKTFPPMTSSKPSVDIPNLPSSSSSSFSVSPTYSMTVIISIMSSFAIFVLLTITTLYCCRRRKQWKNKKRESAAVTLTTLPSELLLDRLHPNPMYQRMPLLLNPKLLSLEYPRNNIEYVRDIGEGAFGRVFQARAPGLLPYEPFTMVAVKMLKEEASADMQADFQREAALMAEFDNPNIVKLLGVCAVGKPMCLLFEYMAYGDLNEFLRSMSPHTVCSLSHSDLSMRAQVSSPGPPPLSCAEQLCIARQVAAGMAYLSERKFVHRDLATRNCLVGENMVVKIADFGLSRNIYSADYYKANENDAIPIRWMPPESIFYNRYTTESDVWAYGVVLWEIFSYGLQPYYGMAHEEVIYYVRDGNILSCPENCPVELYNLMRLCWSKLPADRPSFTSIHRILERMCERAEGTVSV
The note with it: at 10 µM.

Test [8] has as its target Glycogen synthase kinase-3 beta (Homo sapiens, UniProt P49841). Briefly: Selectivity interaction (Millipore kinase profiler) EUB0000124b GSK3B. The note with it: at 10 µM.
Test [9] deals with T4, Ribosomal protein S6 kinase alpha-1 (Homo sapiens, UniProt Q15418). Briefly: Selectivity interaction (KinomeScan (DiscoverX)) EUB0000695a RPS6KA1. The note with it: at 100 nM.
T4 sequence (Q15418 whole entry): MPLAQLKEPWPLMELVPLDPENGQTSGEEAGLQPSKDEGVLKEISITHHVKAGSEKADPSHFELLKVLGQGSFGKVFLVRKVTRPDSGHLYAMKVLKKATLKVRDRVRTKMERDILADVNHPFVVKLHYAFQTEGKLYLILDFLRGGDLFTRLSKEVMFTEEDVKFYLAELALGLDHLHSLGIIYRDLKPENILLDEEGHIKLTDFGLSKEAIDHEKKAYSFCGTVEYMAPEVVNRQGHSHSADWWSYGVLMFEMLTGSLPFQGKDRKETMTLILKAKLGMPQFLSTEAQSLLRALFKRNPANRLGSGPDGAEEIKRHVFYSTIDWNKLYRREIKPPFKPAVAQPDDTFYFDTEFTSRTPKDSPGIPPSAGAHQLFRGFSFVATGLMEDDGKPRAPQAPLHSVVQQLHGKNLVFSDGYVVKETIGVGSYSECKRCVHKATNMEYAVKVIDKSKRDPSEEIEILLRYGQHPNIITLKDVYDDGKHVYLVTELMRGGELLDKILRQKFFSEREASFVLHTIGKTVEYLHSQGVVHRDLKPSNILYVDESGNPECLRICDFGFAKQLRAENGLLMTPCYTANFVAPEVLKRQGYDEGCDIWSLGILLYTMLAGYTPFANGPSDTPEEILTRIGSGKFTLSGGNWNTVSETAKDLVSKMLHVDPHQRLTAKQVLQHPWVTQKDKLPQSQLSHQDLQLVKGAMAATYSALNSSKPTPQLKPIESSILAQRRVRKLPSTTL
Test [10] has as its target T4, Ribosomal protein S6 kinase alpha-1. Briefly: Selectivity interaction (KinomeScan (DiscoverX)) EUB0000092b RPS6KA1. The settings on record: at 10 µM.
Test [11] concerns the target Protein arginine N-methyltransferase 6 (Homo sapiens, UniProt Q96LA8). Briefly: Selectivity interaction (Methyltransferase screen (radiometric assays, panel of 8 PRMTs, 21 protein lysine methyltransferases, 3 DNA methyltransferases, and one RNA methyltransferase)) EUB0000272b PRMT6.

Sequence of Protein arginine N-methyltransferase 6 (Q96LA8 whole entry, looked up): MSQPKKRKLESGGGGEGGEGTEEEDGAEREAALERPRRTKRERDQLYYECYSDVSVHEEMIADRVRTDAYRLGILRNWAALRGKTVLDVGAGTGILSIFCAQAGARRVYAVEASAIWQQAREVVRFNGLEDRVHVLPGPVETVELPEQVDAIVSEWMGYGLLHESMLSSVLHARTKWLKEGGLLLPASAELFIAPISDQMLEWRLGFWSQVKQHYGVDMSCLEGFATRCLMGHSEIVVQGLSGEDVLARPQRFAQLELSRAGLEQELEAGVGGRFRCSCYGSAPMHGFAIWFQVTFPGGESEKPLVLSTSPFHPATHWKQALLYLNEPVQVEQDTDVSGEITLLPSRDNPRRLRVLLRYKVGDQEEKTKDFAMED
Sequence of Ribosomal protein S6 kinase beta-1 (P23443 whole entry, looked up): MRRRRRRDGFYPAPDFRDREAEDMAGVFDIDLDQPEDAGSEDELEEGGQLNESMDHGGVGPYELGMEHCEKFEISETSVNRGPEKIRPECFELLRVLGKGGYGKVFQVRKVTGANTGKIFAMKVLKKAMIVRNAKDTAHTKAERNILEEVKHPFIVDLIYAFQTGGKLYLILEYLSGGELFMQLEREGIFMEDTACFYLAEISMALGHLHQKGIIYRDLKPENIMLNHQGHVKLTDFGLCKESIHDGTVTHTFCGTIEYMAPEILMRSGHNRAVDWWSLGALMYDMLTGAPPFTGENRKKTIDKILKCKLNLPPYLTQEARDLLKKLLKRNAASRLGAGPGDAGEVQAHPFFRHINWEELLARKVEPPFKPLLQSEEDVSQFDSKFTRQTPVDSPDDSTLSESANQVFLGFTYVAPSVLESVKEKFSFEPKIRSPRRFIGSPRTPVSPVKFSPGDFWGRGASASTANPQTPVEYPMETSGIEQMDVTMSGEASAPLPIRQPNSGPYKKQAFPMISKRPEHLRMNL
Sequence of Serine/threonine-protein kinase/endoribonuclease IRE1 (Homo sapiens) (O75460 19-977 limits assumed): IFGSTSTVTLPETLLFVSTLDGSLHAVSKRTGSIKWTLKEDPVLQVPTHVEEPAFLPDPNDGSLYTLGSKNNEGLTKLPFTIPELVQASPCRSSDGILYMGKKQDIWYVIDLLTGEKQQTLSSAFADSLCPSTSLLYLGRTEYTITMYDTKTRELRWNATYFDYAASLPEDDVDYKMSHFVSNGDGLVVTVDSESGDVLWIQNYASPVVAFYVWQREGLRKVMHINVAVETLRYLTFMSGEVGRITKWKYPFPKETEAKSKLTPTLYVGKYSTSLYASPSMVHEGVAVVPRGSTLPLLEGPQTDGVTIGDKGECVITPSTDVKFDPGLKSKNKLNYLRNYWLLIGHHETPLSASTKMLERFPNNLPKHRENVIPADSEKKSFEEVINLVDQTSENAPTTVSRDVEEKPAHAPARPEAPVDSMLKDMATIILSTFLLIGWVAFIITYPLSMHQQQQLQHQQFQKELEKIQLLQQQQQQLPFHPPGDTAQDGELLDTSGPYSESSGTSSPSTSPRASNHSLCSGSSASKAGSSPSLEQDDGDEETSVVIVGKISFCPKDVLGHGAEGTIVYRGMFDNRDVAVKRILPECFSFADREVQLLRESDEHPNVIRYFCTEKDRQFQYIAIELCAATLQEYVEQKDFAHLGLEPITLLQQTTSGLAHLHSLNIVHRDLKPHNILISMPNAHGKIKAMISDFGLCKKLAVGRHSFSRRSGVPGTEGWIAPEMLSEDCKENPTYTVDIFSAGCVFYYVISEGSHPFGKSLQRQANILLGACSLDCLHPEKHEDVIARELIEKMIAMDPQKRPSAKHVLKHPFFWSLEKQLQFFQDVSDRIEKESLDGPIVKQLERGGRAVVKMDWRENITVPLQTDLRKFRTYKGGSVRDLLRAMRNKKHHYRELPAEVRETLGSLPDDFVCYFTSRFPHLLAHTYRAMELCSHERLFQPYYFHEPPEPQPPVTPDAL
Sequence of Glycogen synthase kinase-3 beta (P49841 whole entry, looked up): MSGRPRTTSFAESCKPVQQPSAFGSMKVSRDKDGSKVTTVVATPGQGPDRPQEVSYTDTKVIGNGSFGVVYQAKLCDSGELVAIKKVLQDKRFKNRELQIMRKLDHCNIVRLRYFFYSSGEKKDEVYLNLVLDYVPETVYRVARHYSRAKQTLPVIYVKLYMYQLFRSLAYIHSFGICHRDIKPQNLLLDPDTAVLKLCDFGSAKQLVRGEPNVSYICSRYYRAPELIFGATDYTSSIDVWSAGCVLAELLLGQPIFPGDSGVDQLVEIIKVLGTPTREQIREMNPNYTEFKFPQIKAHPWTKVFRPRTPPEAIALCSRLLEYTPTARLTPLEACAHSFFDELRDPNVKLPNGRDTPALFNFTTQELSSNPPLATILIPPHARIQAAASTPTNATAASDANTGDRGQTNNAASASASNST

In the case of `CNC(=O)Nc1ccc(-c2nc(N3CC4CCC(C3)O4)c3cnn(C4CCC5(CC4)OCCO5)c3n2)cc1`, the % of control at SRSF protein kinase 1 is 100%. Regarding `O=C(NOC[C@H](O)CO)c1ccc(F)c(F)c1Nc1ccc(I)cc1F`, the % of control in test [1] was 64%. In the case of `CN(C)CCOc1ccc(-c2nc(-c3ccncc3)c(-c3ccc4c(c3)CC/C4=N\O)[nH]2)cc1`, the % of control in test [2] was 40%.

Take `Nc1cnc(N2CCc3cc(S(=O)(=O)Nc4c(F)cc(Cl)cc4F)cc(N4CCCC4=O)c32)nc1` [TP-020n]: the results for the % of control in test [3] and in test [4] were 100% and 99%, respectively. `CC[C@@H]1[C@H](F)C(=O)N[C@@H]1COc1nccc2cc(C(N)=O)c(OC)cc12` [ZIMLOVISERTIB]: the % of inhibition in [5] was 3.9%; in test [6], 7.57%. For the compound `CCN(CC)CCCCNc1ncc2cc(-c3cc(OC)cc(OC)c3)c(NC(=O)NC(C)(C)C)nc2n1`, the % of control in [7] came out at 100%. `CC(=O)Nc1cccc(-n2c(=O)n(C3CC3)c(=O)c3c(Nc4ccc(I)cc4F)n(C)c(=O)c(C)c32)c1` yielded a % of control in test [8] of 98%.

In the case of `Cc1cc(F)c(C(=O)Nc2cccc(-c3nncn3C(C)C)n2)cc1-n1cnc(C2CC2)c1`, in test [9], the % of control is 100%. The compound `CCC(=O)N1CCN(c2ccc(-n3c(=O)ccc4cnc5ccc(-c6cnc7ccccc7c6)cc5c43)cc2C(F)(F)F)CC1` gave a % of control in test [10] of 68%. Turning to `Cc1cc(C)cc([C@H]2c3cc(C)ccc3NC(=O)CN2C(=O)c2ccc(Br)s2)c1`, the results for the % of activity in test [11] (at 1 µM) and in test [11] (at 10 µM) were 92.3% and 92.7%, respectively.
